Measured values reported in patent US11040981B2, “Pyrrolotriazine compounds and methods of inhibiting TAM kinases” (Syros Pharmaceuticals, Inc., priority 2017, dated 2021).

Assays:
AXL = target: T1, AXL (Homo sapiens, UniProt P30530); assay: TR-FRET kinase activity assay, AXL; assay type: biochemical; settings: ATP at Km, 60 minutes
T1 sequence (P30530 26-894): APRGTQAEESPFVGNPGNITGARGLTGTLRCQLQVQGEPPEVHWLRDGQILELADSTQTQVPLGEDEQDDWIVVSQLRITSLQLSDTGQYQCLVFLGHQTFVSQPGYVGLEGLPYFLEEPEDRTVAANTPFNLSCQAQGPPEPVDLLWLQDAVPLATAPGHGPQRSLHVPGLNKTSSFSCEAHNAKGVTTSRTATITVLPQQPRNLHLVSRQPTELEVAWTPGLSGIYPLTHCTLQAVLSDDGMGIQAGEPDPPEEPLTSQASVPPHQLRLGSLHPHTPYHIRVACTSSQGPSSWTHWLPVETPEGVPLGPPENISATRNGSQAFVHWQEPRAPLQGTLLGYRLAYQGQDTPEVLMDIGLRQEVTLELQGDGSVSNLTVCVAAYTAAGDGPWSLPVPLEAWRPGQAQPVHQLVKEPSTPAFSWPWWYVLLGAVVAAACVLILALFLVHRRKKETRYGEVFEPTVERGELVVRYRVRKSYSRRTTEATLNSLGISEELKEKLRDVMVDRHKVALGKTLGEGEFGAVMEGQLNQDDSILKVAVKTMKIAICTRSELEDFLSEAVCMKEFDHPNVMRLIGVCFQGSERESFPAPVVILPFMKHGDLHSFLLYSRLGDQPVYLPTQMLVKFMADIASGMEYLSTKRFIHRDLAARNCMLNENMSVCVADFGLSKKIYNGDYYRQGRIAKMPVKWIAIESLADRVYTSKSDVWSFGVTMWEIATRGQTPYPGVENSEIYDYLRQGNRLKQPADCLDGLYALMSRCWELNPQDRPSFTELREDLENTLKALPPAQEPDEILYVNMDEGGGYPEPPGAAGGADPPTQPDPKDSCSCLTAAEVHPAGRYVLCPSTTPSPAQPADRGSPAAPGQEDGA
Method: (§1) IC50 values for compound inhibition of AXL, FLT3, MERTK and TYRO3 activity were determined by using a TR-FRET activity assay. A polypeptide substrate with a fluorescent label is phosphorylated on a tyrosine by each enzyme, where the now phosphorylated product is bound by a Europium-labeled antibody specific to that phosphorylation site. The proximity between the antibody and the substrate gives a signal known as TR-FRET. As the enzyme is inhibited by compound, less phosphorylated peptide product is made causing a decrease in overall signal.
(§2) Activity assays were performed in a 384-well, small volume, black microplates in an active enzyme volume of 10 μL and final developed volume of 20 μL. Final assay conditions are 50 mM HEPES pH 7.5, 10 mM MgCl2, 1 mM EGTA, 0.01% Brij 35 and 1 mM DTT all at RT. Enzyme, substrate labeled peptide and compound are mixed, and then the reaction is initiated with the addition of ATP at Km concentration for each enzyme. The reaction is allowed to run 60 minutes and then quenched with a 12.5 mM EDTA (ethylenediamine tetraacetic acid) solution. The plate is then developed with the addition of Europium labeled antibody for a final volume of 20 μL and is then incubated for 30 minutes in darkness. Plates are read in a Pherastar plate reader. Data is analyzed in GraphPad PRISM.
(§3) The results of these assays are shown in Table 1, below, wherein “No.” designates compound number (FIG. 1); “A” represents a value of ≤100 nM; “B” a value of >100 nM and ≤1 μM; “C” a value of >1 μM and ≤10 μM; “D” a value of >10 μM; “ND” is not determined. The ratio of Mer to FLT3 is calculated as follows: FLT3 IC50/Mer IC50. “+” represents a ratio of >2.0 and <10; “++” represents a ratio of between 10 and 100; and “+++” represents a ratio of >100.

FLT3 = target: T2, FLT3 (Homo sapiens, UniProt P36888); assay: TR-FRET kinase activity assay, FLT3; assay type: biochemical; settings: ATP at Km, 60 minutes
T2 sequence (P36888 27-993): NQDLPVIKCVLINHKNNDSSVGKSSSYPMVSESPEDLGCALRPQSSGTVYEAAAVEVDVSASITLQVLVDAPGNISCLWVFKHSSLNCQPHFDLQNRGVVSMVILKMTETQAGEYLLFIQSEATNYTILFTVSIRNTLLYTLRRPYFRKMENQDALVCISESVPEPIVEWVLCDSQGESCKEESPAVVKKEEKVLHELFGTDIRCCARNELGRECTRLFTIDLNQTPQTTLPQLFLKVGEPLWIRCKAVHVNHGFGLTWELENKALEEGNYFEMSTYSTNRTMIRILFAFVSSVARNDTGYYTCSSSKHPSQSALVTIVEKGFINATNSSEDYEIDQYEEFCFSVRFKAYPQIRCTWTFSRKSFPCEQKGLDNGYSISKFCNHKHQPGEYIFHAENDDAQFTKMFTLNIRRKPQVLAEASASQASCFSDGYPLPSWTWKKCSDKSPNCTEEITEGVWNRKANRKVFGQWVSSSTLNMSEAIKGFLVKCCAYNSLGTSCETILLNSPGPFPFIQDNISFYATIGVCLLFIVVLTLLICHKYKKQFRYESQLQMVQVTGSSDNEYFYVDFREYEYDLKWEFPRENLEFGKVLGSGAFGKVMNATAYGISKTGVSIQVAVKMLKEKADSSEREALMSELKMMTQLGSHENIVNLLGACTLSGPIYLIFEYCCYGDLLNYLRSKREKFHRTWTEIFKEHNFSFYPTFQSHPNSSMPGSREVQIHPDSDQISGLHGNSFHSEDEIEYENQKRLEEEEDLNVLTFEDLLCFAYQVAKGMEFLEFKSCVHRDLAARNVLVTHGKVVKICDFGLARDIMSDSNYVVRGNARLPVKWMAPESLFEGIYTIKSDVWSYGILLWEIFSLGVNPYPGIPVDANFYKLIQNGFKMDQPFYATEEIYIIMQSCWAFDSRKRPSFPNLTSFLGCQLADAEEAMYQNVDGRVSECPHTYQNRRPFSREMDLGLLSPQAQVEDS
Method: as §1, §2, §3

SMILES | IC50 (AXL) [µM] | IC50 (FLT3) [µM]
COCC(C)Nc1ncc2c(-c3cccc(C)n3)cc(C3CCC(O)CC3)n2n1 (stereo not drawn) [Compound 253] | 1 to 10 | 1 to 10
C[C@H](Nc1ncc2c(-c3ccc(CN4CCOCC4)cc3)cc([C@H]3CC[C@H](O)CC3)n2n1)[C@H]1CCCO1 [Compound 204] | 1 to 10 | 1 to 10
COC[C@H](C)Nc1ncc2c(-c3cnn(CC(=O)N4CCCC4)c3)cc([C@H]3CC[C@H](O)CC3)n2n1 [Compound 239] | ≤ 0.1 | 0.1 to 1
COC[C@H](C)Nc1ncc2c(-c3cnn(CC(C)(C)O)c3)cc([C@H]3CC[C@H](O)CC3)n2n1 [Compound 264] | ≤ 0.1 | 1 to 10
COC[C@H](C)Nc1ncc2c(-c3ccc(C)nc3)cc([C@H]3CC[C@H](O)CC3)n2n1 [Compound 246] | ≤ 0.1 | 0.1 to 1
COCC(C)Nc1ncc2c(-c3cnn(C4COC4)c3)cc(C3CCC(O)CC3)n2n1 (stereo not drawn) [Compound 221] | ≤ 0.1 | 0.1 to 1
COC[C@H](C)Nc1ncc2c(-c3cnn(CC4(C#N)CC4)c3)cc([C@H]3CC[C@H](O)CC3)n2n1 [Compound 266] | ≤ 0.1 | 0.1 to 1
COC[C@H](C)Nc1ncc2c(-c3cnnc(C)c3)cc([C@H]3CC[C@H](O)CC3)n2n1 [Compound 267] | 0.1 to 1 | 1 to 10
Cc1cc(-c2cc([C@H]3CC[C@H](O)CC3)n3nc(N[C@@H](C)CC(F)(F)F)ncc23)ccn1 [Compound 213] | ≤ 0.1 | ≤ 0.1
COC[C@H](C)Nc1ncc2c(-c3cccc(CN4CC[C@@H](F)C4)c3)cc([C@H]3CC[C@H](O)CC3)n2n1 [Compound 224] | 0.1 to 1 | 0.1 to 1
COC[C@H](C)Nc1ncc2c(-c3ccc(C(=O)N4CCS(=O)(=O)CC4)cc3)cc([C@H]3CC[C@H](O)CC3)n2n1 [Compound 197] | ≤ 0.1 | 0.1 to 1
COC[C@H](C)Nc1ncc2c(-c3ccc(CN4CCOCC4)nc3)cc([C@H]3CC[C@H](O)CC3)n2n1 [Compound 230] | 0.1 to 1 | 0.1 to 1
COC[C@H](C)Nc1ncc2c(-c3cncc(S(C)(=O)=O)c3)cc([C@H]3CC[C@H](O)CC3)n2n1 [Compound 194] | 0.1 to 1 | 1 to 10
COC[C@H](C)Nc1ncc2c(-c3cncc(C(=O)N4CCOCC4)c3)cc([C@H]3CC[C@H](O)CC3)n2n1 [Compound 233] | 0.1 to 1 | 1 to 10
CC(CCOC(F)F)Nc1ncc2c(-c3ccc(CN4CCOCC4)cc3)cc(C3CCC(O)CC3)n2n1 (stereo not drawn) [Compound 255] | ≤ 0.1 | ≤ 0.1
CCCCCC(C)Nc1ncc2c(C3=CCC(C(=O)N4CCOCC4)CC3)cc(C3CCC(O)CC3)n2n1 (mixture of isomers) [Compound 110] | ≤ 0.1 | 0.1 to 1
COCC[C@@H](C)Nc1ncc2c(-c3ccc(CN4CCOCC4)cc3)cc([C@H]3CC[C@H](O)CC3)n2n1 [Compound 212] | 0.1 to 1 | 1 to 10

SMILES | IC50 (AXL) [µM] | IC50 (FLT3) [µM]
COC[C@H](C)Nc1ncc2c(-c3cccc(CN4CCOCC4)c3)cc([C@H]3CC[C@H](O)CC3)n2n1 [Compound 217] | 0.1 to 1 | 0.1 to 1
COC[C@H](C)Nc1ncc2c(-c3cccc(CN4CCC(F)(F)C4)c3)cc([C@H]3CC[C@H](O)CC3)n2n1 [Compound 223] | 0.1 to 1 | 1 to 10
COC[C@H](C)Nc1ncc2c(-c3cnn([C@H]4CCOC4)c3)cc([C@H]3CC[C@H](O)CC3)n2n1 [Compound 243] | ≤ 0.1 | 0.1 to 1
COC[C@H](C)Nc1ncc2c(-c3cnn(CC(=O)NC(C)C)c3)cc([C@H]3CC[C@H](O)CC3)n2n1 [Compound 235] | 0.1 to 1 | 1 to 10
C[C@@H](CC(F)(F)F)Nc1ncc2c(-c3ccc(CN4CCOCC4)cc3)cc([C@H]3CC[C@H](O)CC3)n2n1 [Compound 203] | ≤ 0.1 | ≤ 0.1
COC[C@H](C)Nc1ncc2c(-c3ccc4c(c3)NC(=O)C4)cc([C@H]3CC[C@H](O)CC3)n2n1 [Compound 249] | ≤ 0.1 | 0.1 to 1
COC[C@H](C)Nc1ncc2c(-c3ccc(N4CCN(C)CC4)nc3)cc([C@H]3CC[C@H](O)CC3)n2n1 [Compound 271] | ≤ 0.1 | ≤ 0.1
COC[C@H](C)Nc1ncc2c(-c3cnn(Cc4cccnc4)c3)cc([C@H]3CC[C@H](O)CC3)n2n1 [Compound 220] | ≤ 0.1 | 0.1 to 1
COC[C@H](C)Nc1ncc2c(-c3ccc(C(=O)N4CCOCC4)nc3)cc([C@H]3CC[C@H](O)CC3)n2n1 [Compound 227] | 0.1 to 1 | 1 to 10
COC[C@H](C)Nc1ncc2c(-c3ccc4c(c3)CC(=O)N4)cc([C@H]3CC[C@H](O)CC3)n2n1 [Compound 251] | 0.1 to 1 | 0.1 to 1
COC[C@H](C)Nc1ncc2c(-c3cncc(C#N)c3)cc([C@H]3CC[C@H](O)CC3)n2n1 [Compound 201] | 0.1 to 1 | 1 to 10
CCCCC[C@H](C)Nc1ncc2c([C@H]3CC[C@@H](C(=O)N4CCOCC4)CC3)cc([C@H]3CC[C@H](O)CC3)n2n1 [Compound 109, ((cis)-4-(2-((S)-heptan-2-ylamino)-7-((trans)-4-hydroxycyclohexyl)pyrrolo[2,1-f][1,2,4]triazin-5-yl)cyclohexyl)(morpholino)methanone] | ≤ 0.1 | 0.1 to 1
COC[C@H](C)Nc1ncc2c(-c3cccc4c3CNC4=O)cc([C@H]3CC[C@H](O)CC3)n2n1 [Compound 210] | 0.1 to 1 | 1 to 10
COC[C@H](C)Nc1ncc2c(-c3cn(C)nn3)cc([C@H]3CC[C@H](O)CC3)n2n1 [Compound 250, (trans)-4-(2-(((S)-1-methoxypropan-2-yl)amino)-5-(1-methyl-1H-1,2,3-triazol-4-yl)pyrrolo[2,1-f][1,2,4]triazin-7-yl)cyclohexanol] | 0.1 to 1 | 1 to 10
COC[C@H](C)Nc1ncc2c(-c3ccc(C(=O)N4CCN(C)CC4)nc3)cc([C@H]3CC[C@H](O)CC3)n2n1 [Compound 226] | 0.1 to 1 | 0.1 to 1
COCC(C)Nc1ncc2c(-c3cccc(CN4CCC(F)C4)c3)cc(C3CCC(O)CC3)n2n1 (stereo not drawn) [Compound 225] | ≤ 0.1 | 0.1 to 1
